Results taken from patent publication US5478845A, “Piperidine derivatives” (Novo Nordisk A/S, priority 1993, dated 1995).
Structures can show the parent of a compound that is named as a salt.

Legend:
Design in all cases: species or system Male Wistar rats
[1] = molecular target: T1, DOPAMINE D2 Receptor (Rattus norvegicus, UniProt P61169); assay: TEST 1: In Vitro Inhibition of DOPAMINE D2 Receptor Binding (3H-Spiroperidol, rat striatum); settings: 3H-Spiroperidol (0.05 nM), rat striatum membranes, 20 min. at 37° C.; read-out: TEST 1 IC50 (concentration inhibiting specific binding by 50%)
T1 construct: Male Wistar rats, 150-200 g are decapitated, striatum is removed quickly and weighed; from tissue; host or cells: rat striatum membrane fragments
Method: TEST 1: In Vitro Inhibition of DOPAMINE D2 Receptor Binding
(§1) Radioactive-labelled ligand ^3 H-Spiroperidol is incubated with isolated cell-membrane fragments at 37° C. for a given period of time. Following completed incubation, the incubate is filtered through GF/B filters which are rinsed following filtration to remove unspecifically adhered radioactivity. As opposed to low-molecular compounds, membrane fragments are not rinsed through the filters, the radioactivity bound to the filters is indicative of the amount of ligand bound specifically as well as nonspecifically to the membranes.
The procedure is performed in ice bath. Polytron kinematica is rinsed with milli-Q--H2 O before and after use. Male Wistar rats, 150-200 g are decapitated, striatum is removed quickly and weighed (approx. 50 mg). Striatum is transferred to a centrifuging vial containing 10 ml ice-cold D2 buffer. Homogenization is performed applying polytron kinematica (homogenizer) setting 6 for 20 sec. The homogenizer is rinsed with 10 ml D2 buffer in another centrifuging vial. The 10 ml rinsing buffer is added to the tissue vial. Centrifugation at 18,000 rpm for 10 min. at 4° C. Final pellet is transferred to 1,000×vol. of same buffer. (Ex. 50 mg striatum in 50 ml D2 buffer). Can be stored at 0° C. for at least 4 hours. Note that the tissue must be monogeneous (uniform) before use. If not, brief homogenization is performed. […]

[2] = molecular target: T2, DOPAMINE D1 Receptor (Rattus norvegicus, UniProt P18901); assay: TEST 2: In Vitro Inhibition of DOPAMINE D1 Receptor Binding (3H-SCH 23390, rat striatum); settings: 3H-SCH 23390 (0.2 nM), rat striatum membranes, 60 min. at 30° C.; read-out: TEST 2 IC50 (concentration inhibiting specific binding by 50%)
T2 construct: Male Wistar rats, 150-200 g are decapitated; Striatum is removed quickly; from tissue; host or cells: rat striatum membrane fragments
Method: TEST 2: In Vitro Inhibition of DOPAMINE D1 Receptor Binding
Radioactive-labelled ligand ^3 H-SCH 23390 is incubated with isolated cell-membrane fragments in incubation buffer at 30° C. for a given period of time. Following completed incubation, the incubate is filtered through GF/B filters, which are rinsed following filtration to remove unspecifically adhered radioactivity. As opposed to low-molecular compounds, membrane fragments are not rinsed through the filters, the radioactivity bound to the filters indicates the amount of ligand bound specifically as well as nonspecifically to the membranes.
Male Wistar rats, 150-200 g are decapitated. Striatum is removed quickly, weighed (approx. 50 mg) and carefully homogenized in 100×vol. of buffer I applying glass/teflon homogenizer 10 up/down strokes. Ex.: 50 mg striatum is homogenized in […] buffer I. The homogenate is centrifuged at 18,000 rpm for 20 min. at 4° C., and the supernate is decanted. This step is performed three times, and each time the pellet is resuspended and homogenized in 100×vol. of buffer I. Following the third centrifugation, the pellet is suspended in 100×vol. of resuspension buffer and homogenized. The tissue is now ready for use. The tissue is stable at 0° C. for 8 hours.
200 μl test substance/H2 O/blind (cis-flupentixol 2 μM)
Incubation for 60 min. at 30° C.
10 ml of ice-cold 0.9% NaCl is added to the tubes. […]

[3] = molecular target: T3, 5HT2-Receptor (Rattus norvegicus, UniProt P14842); assay: TEST 3: In Vitro Inhibition of 5HT2-Receptor Binding (3H-Ketanserine, rat frontal cortex); settings: 3H-Ketanserine (0.4 nM), rat frontal cortex membranes, 15 min. at 37° C.; read-out: TEST 3 IC50 (concentration inhibiting specific binding by 50%)
T3 construct: Male Wistar rats, 150-200 g are decapitated; Frontal cortex is removed quickly; from tissue; host or cells: rat frontal cortex membrane fragments
Method: TEST 3: In Vitro Inhibition of 5HT2 -Receptor Binding
as §1, with “^3 H-Ketanserine” for “^3 H-Spiroperidol”, “isolated cell membrane” for “isolated cell-membrane”, “GF/B filters,” for “GF/B filters”, “filters indicates” for “filters is indicative of”
The preparation is made in ice bath. Polytron kinematica is rinsed with milli-Q--H2 O before and after use. Male Wistar rats, 150-200 g are decapitated. Frontal cortex is removed quickly and weighed (approx. 200 mg). Frontal cortex is added to centrifuging vial containing 10 ml ice-cold D2 buffer. Homogenization applying polytron kinematica (homogenizer) setting 6 for 20 sec. The homogenizer is rinsed with 10 ml D2 buffer in another centrifuging vial. The 10 ml rinsing buffer is added to the tissue vial. Centrifuged at 18,000 rpm for 10 min. at 4° C. Final pellet is transferred to 125×vol. of same buffer. (Ex 200 mg in 25 ml D2 buffer). Can be stored for approx. 30 min. at 0° C.
25/μl ^3 H-Ketanserine (0.4 nM)
25/μl test substance/H2 O/blind cyproheptadine (2/μM)
Incubation for 15 min. at 37° C. […]

T3 sequence (P14842 whole entry, the tested form may be a part): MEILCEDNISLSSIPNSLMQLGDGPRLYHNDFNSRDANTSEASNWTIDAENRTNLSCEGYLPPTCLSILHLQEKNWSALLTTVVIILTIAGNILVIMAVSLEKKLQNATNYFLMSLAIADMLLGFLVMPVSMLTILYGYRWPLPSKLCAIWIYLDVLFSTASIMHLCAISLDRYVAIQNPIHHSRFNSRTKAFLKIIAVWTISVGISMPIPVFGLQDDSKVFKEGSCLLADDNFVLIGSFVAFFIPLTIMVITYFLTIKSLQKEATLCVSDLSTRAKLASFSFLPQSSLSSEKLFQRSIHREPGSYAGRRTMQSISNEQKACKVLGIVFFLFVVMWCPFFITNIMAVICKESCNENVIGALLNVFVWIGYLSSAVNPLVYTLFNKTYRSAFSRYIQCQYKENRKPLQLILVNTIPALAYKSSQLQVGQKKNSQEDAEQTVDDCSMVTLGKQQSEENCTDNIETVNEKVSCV
T1 sequence (P61169 whole entry, the tested form may be a part): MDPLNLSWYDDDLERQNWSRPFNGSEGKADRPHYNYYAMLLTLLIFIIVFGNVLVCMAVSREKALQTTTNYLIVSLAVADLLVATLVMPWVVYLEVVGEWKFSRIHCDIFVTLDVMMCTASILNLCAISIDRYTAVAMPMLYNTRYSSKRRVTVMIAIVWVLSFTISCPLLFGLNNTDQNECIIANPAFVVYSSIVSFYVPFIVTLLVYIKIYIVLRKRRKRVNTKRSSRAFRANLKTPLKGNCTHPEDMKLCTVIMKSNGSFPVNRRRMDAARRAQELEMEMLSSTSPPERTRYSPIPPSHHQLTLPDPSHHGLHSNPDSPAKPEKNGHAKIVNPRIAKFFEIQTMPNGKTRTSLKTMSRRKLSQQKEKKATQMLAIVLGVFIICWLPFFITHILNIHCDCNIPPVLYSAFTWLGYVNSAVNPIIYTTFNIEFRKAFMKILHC
T2 sequence (P18901 whole entry, the tested form may be a part): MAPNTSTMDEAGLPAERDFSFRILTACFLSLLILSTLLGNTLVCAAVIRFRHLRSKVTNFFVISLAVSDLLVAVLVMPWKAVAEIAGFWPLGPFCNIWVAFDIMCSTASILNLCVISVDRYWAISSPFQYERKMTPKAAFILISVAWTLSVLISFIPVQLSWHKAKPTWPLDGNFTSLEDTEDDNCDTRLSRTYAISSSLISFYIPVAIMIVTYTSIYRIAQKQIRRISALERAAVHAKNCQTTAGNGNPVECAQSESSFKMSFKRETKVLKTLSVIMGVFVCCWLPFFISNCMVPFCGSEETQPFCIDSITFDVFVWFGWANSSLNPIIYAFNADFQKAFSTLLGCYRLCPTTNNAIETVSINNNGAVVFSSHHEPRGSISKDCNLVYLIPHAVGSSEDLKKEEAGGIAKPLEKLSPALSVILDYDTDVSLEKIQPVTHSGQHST

CCN(C(=O)OCCCN1CCC(c2noc3cc(F)ccc23)CC1)c1ccc2c(c1)OCO2 [Example 2, 4-(6-Fluoro-1,2-benzisoxazol-3-yl)-1-(3-(N-ethyl-N-(3,4-methylenedioxyphenyl)carbamoyloxy)propylpiperidine, oxalate]
IC50 [1]: 18 nM | IC50 [2]: 30 nM | IC50 [3]: 6.7 nM

CN(C(=O)OCCCN1CCC(c2noc3cc(F)ccc23)CC1)c1ccccc1 [Example 3, 4-(6-Fluoro-1,2-benzisoxazol-3-yl) -1-(3-(N-methyl-N-phenylcarbamoyloxy)propyl)piperidine, oxalate]
IC50 [1]: 8.9 nM | IC50 [2]: 43 nM | IC50 [3]: 6.9 nM
